What was measured:
[1] = tested on: ABCA1 mRNA in THP-1 cells; experiment: ABCA1 bDNA assay (ABCA1 mRNA induction); assay type: cell-based; conditions: Homo sapiens; for Emax at 3 µM: relative to MX-6054, read-out: ABCA1 % max MX-6054; for EC50: ABCA1 mRNA induction, usually 18-24 hrs
Protocol: THP-1 cells, a human monocytic cell line, were obtained from ATCC and maintained in RPMI (Gibco) supplemented with 10% fetal bovine serum (Gibco), 2mM L-glutamine and 1% antibiotic-antimycotic in 5% CO2 at 37° C. For ABCA1 mRNA induction assays, the cells were pelleted and resuspended in RPMI supplemented with 0.5% charcoal treated serum (Hyclone), 2 mM glutamine and 1% antibiotic-antimycotic. The cells were plated at a density of 40,000 cells/90 μl and incubated as above for at least 4 hours before the initiation of treatments. Compounds were prepared as 10 mM stocks in DMSO. For treatments, the compounds were diluted in medium and 10 μl of 10× stocks were added to the cells at a final concentration 0.1% DMSO. The cells were incubated for the desired amount of time (usually 18-24 hrs) and then lyzed with 50 μl of Quantigene HV bDNA lysis buffer which also contained the ABCA1 bDNA probes (probe sequences shown below): […]

[2] = target: T1, RXR ligand binding domain (accession number X52773) fused with the DNA binding domain of yeast GAL4 (Homo sapiens, UniProt P19793); experiment: RXR co-transfection assay (GAL4-LBD luciferase reporter in HEK293 cells); assay type: cell-based; conditions: 16-18 hours
T1 construct: expressed in transfected cells; host or cells: HEK293
T1 sequence (P19793 227-458 limits assumed): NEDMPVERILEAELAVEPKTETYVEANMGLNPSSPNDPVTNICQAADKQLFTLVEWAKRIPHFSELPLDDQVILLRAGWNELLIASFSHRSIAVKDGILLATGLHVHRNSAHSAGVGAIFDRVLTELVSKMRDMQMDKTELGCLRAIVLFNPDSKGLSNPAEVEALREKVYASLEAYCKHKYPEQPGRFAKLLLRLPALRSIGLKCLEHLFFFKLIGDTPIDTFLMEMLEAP
Protocol: The nucleic acid sequence from 676-1464bp (accession number X52773) encoding the ligand binding domains was subcloned into the pM vector (BD Biosciences Clontech, Palo Alto, Calif.) and were fused with the DNA binding domain of yeast GAL4. HEK293 cells were cultured in DMEM/F12 medium supplemented with 10% FBS and 1% 1-glutamine (growth medium). Cells were seeded at a density of 5-10×10^6 cells in 50 ml of growth medium and left overnight, The medium was removed and the cells were washed with 15 ml of OptiMEM serum free medium (Invitrogen Corp). The cells were transfected using OptiMEM serum free medium and DMRIE transfection reagent (Invitrogen Corp). Approximately 10-30 ng of DNA for the different receptors and 5-10 ng of the luciferase reporter (1:1 ratio for RAR and 4:1 ratio for RXR of receptor DNA:reporter DNA) were gently mixed with 51 μl of DMRIE reagent in a total volume of 17 ml of OptiMEM medium. Eighteen hours after transfection, the cells were washed once with growth medium and then incubated for 6 hrs in 30 ml of growth medium. The cells were then trypsinized, and reseeded at a density of 50,000 per well in 96 well plates and left overnight. The medium was replaced with 90 μl of medium containing DMEM/F12 supplemented with 0.5% charcoal-treated FBS (HyClone; Logan, Utah) and 1% glutamine. Compounds or vehicle were added in 10 μl of 10× concentration of compound or vehicle (0.1% dimethyl sulfoxide). The cells were treated for 16-18 hours, lysed and assayed for luciferase activity using the Steady Gio luciferase assay kit (Promega, Madison, Wis.).

Compound	Emax at 3 µM [1]	EC50 [1]	EC50 [2]
Cc1cc2c(cc1-c1cc(/C=C/C(=O)O)ccc1OC(F)(F)F)N(C(C)C)C(=O)C(C)(C)O2 [Compound 4, 3-[3-(4-Isopropyl-2,2,7-trimethyl-3-oxo-3,4-dihydro-2H-benzo[1,4]oxazin-6-yl)-4-trifluoromethoxy-phenyl]-acrylic acid]	79%	430 nM	98.8 nM
CCN1C(=O)C(C)(C)Oc2cc(C)c(-c3cc(CCC(=O)O)ccc3OC(F)(F)F)cc21 [Compound 12, 3-[3-(4-Ethyl-2,2,7-trimethyl-3-oxo-3,4-dihydro-2H-benzo[1,4]oxazin-6-yl)-4-trifluoromethoxy-phenyl]-propionic acid]	–	> 2000 nM	709 nM
CCN1C(=O)OC(C(C)C)c2cc(C)c(-c3cc(CCC(=O)O)ccc3OC(F)(F)F)cc21 (centres unmarked) [Compound 18, 3-[3-(1-Ethyl-4-isopropyl-6-methyl-2-oxo-1,4-dihydro-2H-benzo[d][1,3]oxazin-7-yl)-4-trifluoromethoxy-phenyl]-propionic acid]	4.5%	> 2000 nM	> 2000 nM
CCn1c(=O)c(=O)n(CC)c2cc(-c3cc([C@@H]4C[C@H]4C(=O)O)ccc3OC(F)(F)F)c(C)cc21 (racemic) [Compound 26, 2-[3-(1,4-Diethyl-7-methyl-2,3-dioxo-1,2,3,4-tetrahydro-quinoxalin-6-yl)-4-trifluoromethoxy-phenyl]-cyclopropanecarboxylic acid]	–	> 2000 nM	> 2000 nM
Cc1cc2c(cc1-c1cc(C3CC3C(=O)O)ccc1OC(F)(F)F)N(C(C)C)C(=O)C(C)(C)O2 (racemic) [Compound 23, 2-[3-(4-Isopropyl-2,2,7-trimethyl-3-oxo-3,4-dihydro-2H-benzo[1,4]oxazin-6-yl)-4-trifluoromethoxy-phenyl]-cyclopropanecarboxylic acid]	64.1%	> 2000 nM	719 nM
CCN1C(=O)C(C)(C)Oc2cc(C)c(-c3cc([C@@H]4C[C@H]4C(=O)O)ccc3OC(F)(F)F)cc21 (racemic) [Compound 22, 2-[3-(4-Ethyl-2,2,7-trimethyl-3-oxo-3,4-dihydro-2H-benzo[1,4]oxazin-6-yl)-4-trifluoromethoxy-phenyl]-cyclopropanecarboxylic acid]	28.6%	> 2000 nM	385 nM
CCN1C(=O)C(C)(C)Oc2cc(C)c(-c3cc(/C=C/C(=O)O)ccc3OCC(F)(F)F)cc21 [Compound 2, 3-[3-(4-Ethyl-2,2,7-trimethyl-3-oxo-3,4-dihydro-2H-benzo[1,4]oxazin-6-yl)-4-(2,2,2-trifluoro-ethoxy)-phenyl]-acrylic acid]	–	> 2000 nM	> 2000 nM
CCN1C(=O)C(C)(C)Oc2cc(C)c(-c3cc(/C(C)=C/C(=O)O)ccc3OC(F)(F)F)cc21 [Compound 11, 3-[3-(4-Ethyl-2,2,7-trimethyl-3-oxo-3,4-dihydro-2H-benzo[1,4]oxazin-6-yl)-4-trifluoromethoxy-phenyl]-but-2-enoic acid]	75.5%	> 2000 nM	61.2 nM
Cc1cc2c(cc1-c1cc(/C=C/C(=O)O)ccc1OC(F)(F)F)N(C)C(=O)C(C)(C)O2 [Compound 3, 3-[3-(2,2,4,7-Tetramethyl-3-oxo-3,4-dihydro-2H-benzo[1,4]oxazin-6-yl)-4-trifluoromethoxy-phenyl]-acrylic acid]	8.4%	> 2000 nM	> 2000 nM
CCN1C(=O)OC(C(C)C)c2cc(C)c(-c3cc([C@@H]4C[C@H]4C(=O)O)ccc3OC(F)(F)F)cc21 (some centres unmarked) [Compound 20, 2-[3-(1-Ethyl-4-isopropyl-6-methyl-2-oxo-1,4-dihydro-2H-benzo[d][1,3]oxazin-7-yl)-4-trifluoromethoxy-phenyl]-cyclopropanecarboxylic acid]	–	> 2000 nM	–
CCN1C(=O)COc2cc(C)c(-c3cc(/C=C/C(=O)O)ccc3OC(F)(F)F)cc21 [Compound 6, 3-[3-(4-Ethyl-7-methyl-3-oxo-3,4-dihydro-2H-benzo[1,4]oxazin-6-yl)-4-trifluoromethoxy-phenyl]-acrylic acid]	–	> 2000 nM	–

From US7723326B2, “Heterocyclic amide derivatives as RXR agonists for the treatment of dyslipidemia, hypercholesterolemia and diabetes” (Janssen Pharmaceutica N.V., priority 2005, dated 2010)
